Assay results reported in patent publication US5278308A, “Iodine derivatives of tetrabenazine” (The Trustees of The University of Pennsylvania, priority 1992, dated 1994).

Legend:
[1] = test system: monoamine transporter of chromaffin granules and CNS synaptic vesicles; conditions: cited from earlier work
[2] = normal and lesioned brain sections; cited from earlier work
rat plasma [3] = test: Protein binding by TCA (10% rat plasma, 30 min, 37° C.); format: in vitro ADME; conditions: TCA precipitation
Experimental: One ml of 10% rat plasma was mixed with [^123 I]I-TBZ in a test tube and the mixture was incubated for 30 minutes at 37° C. To the mixture 0.4 mL of 10% trichloroacetic acid (TCA) was added. The test tube was centrifuged for 10 min. (4,000 rpm), and the top aqueous layer was removed to another test tube for counting The precipitate was washed with water (0.5 mL×2). The combined water and top aqueous layer was counted. The residual precipitate was also counted. The protein binding was obtained by dividing counts in precipitate with counts in aqueous layers.

rat plasma [4] = test: Protein binding by Filter (50% rat plasma, Amicon micropartition system); format: in vitro ADME; conditions: 30 min, 37° C.
Experimental: One mL of rat plasma (50%) was mixed with [^123 I]I-TBZ in a test tube. After 30 min incubation at 37° C., 50 uL ×3 of liquid was removed as initial dose standard (I.D.); the rest was passed through an Amicon micropartition system (Amicon division, W. R. Grace, Danvers, Mass.) by centrifuging for 20 minutes (2,000 rpm) at 0° C. Four samples (50 uL each) were removed from the filtered solution and counted. The protein binding (% bound) was calculated by using the unit counts in filtrate divided by unit counts in ID.

[5] = Biodistribution in rats (iv injection); format: in vivo; conditions: rat, iv
Experimental: While under ether anesthesia, each rat was injected in the femoral vein with 0.2 mL saline solution containing [^123 I]I-TBZ (1-5uCi) either racemic mixture, peak-A or peak-B. The rats were sacrificed at various time points postinjection by cardiac excision. The tissues were weighed and the radioactivity was measured with a Canberra gamma counter (Model 5000). The percent dose per organ was calculated by a comparison of the tissue counts to suitably diluted aliquots of the injected material. Total activities of blood and muscle were calculated assuming that they were 7% and 40% of total body weight, respectively Results are presented in Tables 3, 4A and 4B.

[6] = Regional brain distribution in rats (dissection, iv injection); format: in vivo; conditions: rat, listed as I-TBZ peak B
Experimental: Regional brain distribution of [^123 I]I-TBZ (with either a racemic mixture, peak A or B) in rats was obtained after an iv injection. By dissecting, weighing and counting samples from different brain regions (cortex, striatum, hippocampus and cerebellum), % dose/gram of the samples was calculated by comparing the sample counts with the counts of the diluted initial dose. The ratio of uptake in each region was obtained by dividing % dose/gram of each region with that of the cerebellum. The effect of tetrahydrobenazine on the uptake of peak A or peak B was investigated by pretreating the rats with the TBZ 3 mg/rat at 3 min before iv injection of [^123 I]I-TBZ. At 20 min. post injection the rats were dissected and the regional brain dissection was carried out as above.

COc1cc2c(cc1OC)C1CC(O)C(CC(C)C)CN1CC2 (stereo not shown) [[^3 H]dihydro-TBZ, 2-hydroxy-3-(2-methylpropyl)-9,10-dimethoxy-1,3,4,6,7,11b-hexahydro-2H -benzo[a]quinolizine]
binding affinity for the transporter (in words) [1]: does not affect the binding affinity | Kd ([1]; membranes of chromaffin granules and brain tissue samples, in vitro, read-out: binding affinity Kd): 2 to 9 nM | Regional distribution of binding sites in brain sections (in words) [2]: corresponded to the monoamine cell bodies and nerve endings

COc1cc2c(cc1OC)C1CC(O)(C=C[123I])C(CC(C)C)CN1CC2 (single isomer, unassigned) [Peak B]
Protein binding, by TCA (rat plasma [3]): 40.8 ± 0.6 % bound | Protein binding, by Filter (rat plasma [4]): 83.7 ± 0.8 % bound | Blood uptake (blood assumed 7% of body weight) ([5]; 5 min): 4.74 ± 0.36 % Dose/organ | Br/Bl (% dose/gram ratio) ([5]; 5 min): 1.54 ± 0.16 | Brain uptake ([5]; 5 min): 0.74 ± 0.07 % Dose/organ | Heart uptake ([5]; 5 min): 0.63 ± 0.03 % Dose/organ | Kidney uptake ([5]; 5 min): 2.18 ± 0.34 % Dose/organ | Liver uptake ([5]; 5 min): 22.61 ± 1.85 % Dose/organ | Lung uptake ([5]; 5 min): 2.02 ± 0.22 % Dose/organ | Muscle uptake (muscle assumed 40% of body weight) ([5]; 5 min): 21.12 ± 1.36 % Dose/organ | Skin uptake ([5]; 5 min): 7.64 ± 3.09 % Dose/organ | Spleen uptake ([5]; 5 min): 0.46 ± 0.03 % Dose/organ | Thyroid uptake ([5]; 5 min): 0.07 ± 0.01 % Dose/organ | Blood uptake (blood assumed 7% of body weight) ([5]; 20 min): 2.76 ± 0.42 % Dose/organ | Br/Bl (% dose/gram ratio) ([5]; 20 min): 1.06 ± 0.22 | Brain uptake ([5]; 20 min): 0.27 ± 0.02 % Dose/organ | Heart uptake ([5]; 20 min): 0.35 ± 0.02 % Dose/organ | Kidney uptake ([5]; 20 min): 1.37 ± 0.11 % Dose/organ | Liver uptake ([5]; 20 min): 17.25 ± 1.25 % Dose/organ | Lung uptake ([5]; 20 min): 1.05 ± 0.04 % Dose/organ | Muscle uptake (muscle assumed 40% of body weight) ([5]; 20 min): 19.78 ± 1.90 % Dose/organ | Skin uptake ([5]; 20 min): 8.37 ± 1.15 % Dose/organ | Spleen uptake ([5]; 20 min): 0.28 ± 0.03 % Dose/organ | Thyroid uptake ([5]; 20 min): 0.05 ± 0.01 % Dose/organ | Blood uptake (blood assumed 7% of body weight) ([5]; 60 min): 1.89 ± 0.13 % Dose/organ | Br/Bl (% dose/gram ratio) ([5]; 60 min): 0.47 ± 0.05 | Brain uptake ([5]; 60 min): 0.087 ± 0.01 % Dose/organ | Heart uptake ([5]; 60 min): 0.16 ± 0.01 % Dose/organ | Kidney uptake ([5]; 60 min): 0.70 ± 0.06 % Dose/organ | Liver uptake ([5]; 60 min): 8.36 ± 1.01 % Dose/organ | Lung uptake ([5]; 60 min): 0.46 ± 0.03 % Dose/organ | Muscle uptake (muscle assumed 40% of body weight) ([5]; 60 min): 11.80 ± 2.02 % Dose/organ | Skin uptake ([5]; 60 min): 5.45 ± 0.64 % Dose/organ | Spleen uptake ([5]; 60 min): 0.14 ± 0.03 % Dose/organ | Thyroid uptake ([5]; 60 min): 0.13 ± 0.03 % Dose/organ | Blood uptake (blood assumed 7% of body weight) ([5]; 120 min): 1.89 ± 0.34 % Dose/organ | Br/Bl (% dose/gram ratio) ([5]; 120 min): 0.25 ± 0.03 | Brain uptake ([5]; 120 min): 0.042 ± 0.008 % Dose/organ | Heart uptake ([5]; 120 min): 0.09 ± 0.02 % Dose/organ | Kidney uptake ([5]; 120 min): 0.36 ± 0.09 % Dose/organ | Liver uptake ([5]; 120 min): 4.35 ± 0.50 % Dose/organ | Lung uptake ([5]; 120 min): 0.27 ± 0.08 % Dose/organ | Muscle uptake (muscle assumed 40% of body weight) ([5]; 120 min): 5.72 ± 1.20 % Dose/organ | Skin uptake ([5]; 120 min): 4.80 ± 0.46 % Dose/organ | Spleen uptake ([5]; 120 min): 0.06 ± 0.01 % Dose/organ | Thyroid uptake ([5]; 120 min): 0.47 ± 0.14 % Dose/organ | Regional brain uptake, Rem ([6]; 5 min): 0.465 ± 0.070 % Dose/g | Regional brain uptake, cerebellum ([6]; 5 min): 0.449 ± 0.067 % Dose/g | Regional brain uptake, cortex ([6]; 5 min): 0.514 ± 0.066 % Dose/g | Regional brain uptake, hippocampus ([6]; 5 min): 0.458 ± 0.074 % Dose/g | Regional brain uptake, striatum ([6]; 5 min): 0.482 ± 0.066 % Dose/g | Str./Cb (% dose/gram ratio) ([6]; 5 min): 1.07 | Regional brain uptake, Rem ([6]; 20 min): 0.172 ± 0.011 % Dose/g | Regional brain uptake, cerebellum ([6]; 20 min): 0.162 ± 0.017 % Dose/g | Regional brain uptake, cortex ([6]; 20 min): 0.183 ± 0.012 % Dose/g | Regional brain uptake, hippocampus ([6]; 20 min): 0.189 ± 0.012 % Dose/g | Regional brain uptake, striatum ([6]; 20 min): 0.189 ± 0.001 % Dose/g | Str./Cb (% dose/gram ratio) ([6]; 20 min): 1.17 | Regional brain uptake, Rem ([6]; 60 min): 0.057 ± 0.006 % Dose/g | Regional brain uptake, cerebellum ([6]; 60 min): 0.055 ± 0.005 % Dose/g | Regional brain uptake, cortex ([6]; 60 min): 0.060 ± 0.007 % Dose/g | Regional brain uptake, hippocampus ([6]; 60 min): 0.058 ± 0.009 % Dose/g | Regional brain uptake, striatum ([6]; 60 min): 0.062 ± 0.002 % Dose/g | Str./Cb (% dose/gram ratio) ([6]; 60 min): 1.13 | Regional brain uptake, Rem ([6]; 120 min): 0.027 ± 0.004 % Dose/g | Regional brain uptake, cerebellum ([6]; 120 min): 0.027 ± 0.005 % Dose/g | Regional brain uptake, cortex ([6]; 120 min): 0.028 ± 0.005 % Dose/g | Regional brain uptake, hippocampus ([6]; 120 min): 0.027 ± 0.004 % Dose/g | Regional brain uptake, striatum ([6]; 120 min): 0.027 ± 0.003 % Dose/g | Str./Cb (% dose/gram ratio) ([6]; 120 min): 1.00
